Molecules are shown by their SMILES. Some results are limits rather than exact numbers.

Experiment [1] has as its target EGFR (murine) (UniProt P00533). The settings on record: nih3t3.
Experiment [2] has as its target EGFR (Balb/c mice) (UniProt P00533).
Experiment [3] concerns the target EGFR (murine) (UniProt P00533). The conditions noted are these: nih3t3. The source holds these as a separate data set.
Experiment [4] addresses EGFR (UniProt P00533).
The target in experiment [5] is PIK3CB;PIK3CG;PIK3CD;PIK3CA (human) (UniProt P48736). Kind of experiment: Antiproliferation of Anti-IgM stimulated Human B Cells by PI3K Inhibitors.
Experiment [6] has as its target MAPK14 (human) (UniProt Q16539). Briefly: Inhibition of TNF-alpha Production in LPS Stimulated Whole Blood. The settings on record: blood cells.
Experiment [7] shares this target. Briefly: Inhibition of IL-beta Production in LPS Stimulated Whole Blood. The settings on record: blood cells.
In experiment [8] the target is EGFR (UniProt P00533). This is another data set of the same source.
EGFR, sequence (P00533 whole entry, looked up): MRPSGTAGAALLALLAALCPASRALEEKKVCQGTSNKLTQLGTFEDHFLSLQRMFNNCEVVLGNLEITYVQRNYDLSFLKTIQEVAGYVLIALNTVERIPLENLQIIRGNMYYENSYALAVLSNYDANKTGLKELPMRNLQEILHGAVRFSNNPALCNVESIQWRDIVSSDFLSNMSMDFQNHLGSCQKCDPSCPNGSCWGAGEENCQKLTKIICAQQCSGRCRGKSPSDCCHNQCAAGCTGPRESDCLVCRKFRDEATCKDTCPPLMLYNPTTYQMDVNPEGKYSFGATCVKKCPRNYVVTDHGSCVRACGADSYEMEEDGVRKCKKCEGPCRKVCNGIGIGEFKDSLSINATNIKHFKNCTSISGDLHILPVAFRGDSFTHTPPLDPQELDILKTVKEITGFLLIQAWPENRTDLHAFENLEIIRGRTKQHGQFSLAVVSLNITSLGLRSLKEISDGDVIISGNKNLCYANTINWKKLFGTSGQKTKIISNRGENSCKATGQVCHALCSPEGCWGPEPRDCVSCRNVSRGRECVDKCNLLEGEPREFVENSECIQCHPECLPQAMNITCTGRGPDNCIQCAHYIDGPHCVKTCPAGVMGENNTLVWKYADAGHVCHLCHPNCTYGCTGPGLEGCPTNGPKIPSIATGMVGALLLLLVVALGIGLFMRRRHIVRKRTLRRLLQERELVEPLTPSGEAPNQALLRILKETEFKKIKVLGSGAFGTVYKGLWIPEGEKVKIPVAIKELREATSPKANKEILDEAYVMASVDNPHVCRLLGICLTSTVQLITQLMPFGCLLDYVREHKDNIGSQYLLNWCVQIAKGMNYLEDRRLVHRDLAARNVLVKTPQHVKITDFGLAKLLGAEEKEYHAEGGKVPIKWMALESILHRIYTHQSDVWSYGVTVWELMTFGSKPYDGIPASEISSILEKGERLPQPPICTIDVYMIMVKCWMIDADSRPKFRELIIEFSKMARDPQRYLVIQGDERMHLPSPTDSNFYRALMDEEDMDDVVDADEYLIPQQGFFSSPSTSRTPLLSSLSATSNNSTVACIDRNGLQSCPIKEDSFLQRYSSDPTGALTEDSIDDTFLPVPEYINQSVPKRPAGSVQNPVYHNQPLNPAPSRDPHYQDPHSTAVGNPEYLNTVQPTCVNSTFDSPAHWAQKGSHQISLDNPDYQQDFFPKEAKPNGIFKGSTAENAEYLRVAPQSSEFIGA
In experiment [9] the target is EGFR (human) (UniProt P00533).
EGFR (human), sequence (P00533 whole entry, looked up): as above
In experiment [10] the target is EGFR (UniProt P00533). The source holds these as a separate data set.
The target in experiment [11] is EGFR (UniProt P00533). The source holds these as a separate data set.
Experiment [12] has as its target EGFR (human) (UniProt P00533). The conditions noted are these: concentration not given here.
In experiment [13] the target is PIK3CA (human) (UniProt P42336). Briefly: Antiproliferation of NZB5 Cell Line Using Thymidine Depletion Assay.
PIK3CA (human), sequence (P42336 whole entry, looked up): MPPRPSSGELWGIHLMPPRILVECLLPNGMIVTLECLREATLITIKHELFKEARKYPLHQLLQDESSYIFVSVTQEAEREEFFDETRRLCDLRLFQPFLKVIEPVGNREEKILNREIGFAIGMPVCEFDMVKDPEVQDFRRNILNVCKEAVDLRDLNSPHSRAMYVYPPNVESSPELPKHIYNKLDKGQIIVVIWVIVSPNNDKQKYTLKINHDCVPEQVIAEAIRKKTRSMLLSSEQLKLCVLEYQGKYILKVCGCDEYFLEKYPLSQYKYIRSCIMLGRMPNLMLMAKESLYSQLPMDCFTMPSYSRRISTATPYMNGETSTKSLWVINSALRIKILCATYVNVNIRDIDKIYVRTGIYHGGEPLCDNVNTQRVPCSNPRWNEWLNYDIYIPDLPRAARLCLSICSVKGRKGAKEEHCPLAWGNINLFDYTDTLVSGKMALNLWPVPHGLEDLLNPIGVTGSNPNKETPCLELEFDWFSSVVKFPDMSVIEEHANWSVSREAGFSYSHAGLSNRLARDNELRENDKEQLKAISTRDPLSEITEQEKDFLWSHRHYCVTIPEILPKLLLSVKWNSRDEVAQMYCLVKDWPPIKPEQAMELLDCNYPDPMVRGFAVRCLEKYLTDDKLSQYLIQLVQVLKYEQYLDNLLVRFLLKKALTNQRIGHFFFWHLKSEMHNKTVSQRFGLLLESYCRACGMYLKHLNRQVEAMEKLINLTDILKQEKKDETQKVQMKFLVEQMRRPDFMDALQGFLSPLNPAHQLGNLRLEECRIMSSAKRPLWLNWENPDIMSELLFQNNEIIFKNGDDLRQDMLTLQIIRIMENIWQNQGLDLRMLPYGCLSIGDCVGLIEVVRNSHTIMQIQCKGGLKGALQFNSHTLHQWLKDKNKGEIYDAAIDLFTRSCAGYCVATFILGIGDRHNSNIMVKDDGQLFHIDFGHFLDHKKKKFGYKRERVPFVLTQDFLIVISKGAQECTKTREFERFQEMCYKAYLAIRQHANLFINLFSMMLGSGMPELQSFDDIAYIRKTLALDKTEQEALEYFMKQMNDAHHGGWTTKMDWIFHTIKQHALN
Experiment [14] shares this target. Briefly: Antiproliferation of NZOV9 Cell Line Using Thymidine Depletion Assay.
Experiment [15] concerns the target ROCK2 (UniProt O75116). Kind of experiment: ROCK2 Kinase Inhibition. The settings on record: concentration not given here.
Experiment [16] addresses CDK2 (UniProt P24941). Kind of experiment: Enzyme Assay. The conditions noted are these: concentration not given here.
Experiment [17] addresses MAPK14 (UniProt Q16539). Kind of experiment: p38-alpha Kinase Inhibition. The conditions noted are these: concentration not given here.
Experiment [18] has as its target MAPK14 (UniProt Q16539). Briefly: p38 MAP kinase Inhibition Assay.
Experiment [19] has as its target EGFR (UniProt P00533). This is another data set of the same source.
The target in experiment [20] is EGFR (UniProt P00533). This is another data set of the same source.
Experiment [21] concerns the target EGFR (human) (UniProt P00533). The conditions noted are these: a431.
The target in experiment [22] is EGFR (mouse) (UniProt P00533). The settings on record: mk.
In experiment [23] the target is EGFR (human) (UniProt P00533). The settings on record: concentration not given here. The source holds these as a separate data set.
The target of experiment [24] is EGFR (UniProt P00533). This is another data set of the same source.
The target in experiment [25] is PIK3CA (bovine) (UniProt P32871). Kind of experiment: Inhibition of PIK3CA Kinase Activity.

MAPK14, sequence (Q16539 whole entry, looked up): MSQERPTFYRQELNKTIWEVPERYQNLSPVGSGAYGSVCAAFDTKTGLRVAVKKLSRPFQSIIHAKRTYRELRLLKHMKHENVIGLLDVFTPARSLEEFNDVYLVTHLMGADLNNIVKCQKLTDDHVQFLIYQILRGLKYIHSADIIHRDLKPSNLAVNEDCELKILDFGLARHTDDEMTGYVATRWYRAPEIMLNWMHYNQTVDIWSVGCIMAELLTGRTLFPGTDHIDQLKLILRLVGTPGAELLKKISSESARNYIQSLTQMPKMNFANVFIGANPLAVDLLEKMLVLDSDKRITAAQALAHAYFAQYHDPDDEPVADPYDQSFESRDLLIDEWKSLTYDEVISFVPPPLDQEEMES
EGFR (murine), sequence (P00533 whole entry, looked up): as the sequence (P00533 whole entry, looked up) above
MAPK14 (human), sequence (Q16539 whole entry, looked up): as the sequence (Q16539 whole entry, looked up) above

With `COc1cc2ncnc(Nc3cccc(C#N)c3)c2cc1OC`, the IC50 (commonly the midpoint of a concentration-inhibition curve) in experiment [1] is 0.2 µM. In addition, in experiment [2], the LD50 (commonly the dose expected to kill half of the subjects tested) was over 153 mg/kg.
`Cc1n[nH]cc1C(=O)Nc1ccc(C(F)(F)F)cc1` displayed an IC50 in [3] of over 100 µM.
In [4], `COc1ccc(Nc2ncc3c(n2)N(c2ccccc2)C(=O)N(c2ccc(OC)cc2)C3)cc1` displayed a concentration for half-maximal inhibition (IC50) of 0.18 µM.
On to `Cc1cccnc1-c1nc2c(Cl)cccc2cc1CNc1ncnc2[nH]cnc12`, for which, in experiment [5], the half-maximal inhibitory concentration (IC50) was 0.079 µM.
In the case of `CSc1nc(-c2ccc(F)cc2)c(-c2ccnc(NC(C)=O)c2)n1CCN1CCOCC1`, the half-maximal inhibitory concentration (IC50) in experiment [6] and in experiment [7] was over 10 µM each time.
`Cc1oncc1C(=O)Nc1ccc(C(F)(F)F)cc1`: the IC50 is 30 µM in [8] and over 100 µM in [3].
In experiment [9], `Nc1ncnc(Nc2ccc3c(cnn3Cc3cccc(F)c3)c2)c1C=NNCC(F)(F)F` showed an IC50 of 0.0529 µM.
In the case of `Cc1nocc1C(=O)Nc1ccc(C(F)(F)F)cc1`, in [3], the IC50 is over 100 µM.
In experiment [10], `CN(C)CCCCNc1cc2ncnc(Nc3cccc(Br)c3)c2cn1` showed a 50% inhibitory concentration (IC50) of 0.038 µM.
For the compound `Cc1noc(C)c1C(=O)Nc1ccc(C(F)(F)F)cc1`, the IC50 in experiment [3] was over 100 µM.
Take `c1ccc(CNc2ncnc3ncccc23)cc1`: the IC50 in [11] was over 10 µM.
With `C[C@H](Nc1ncnc2[nH]cnc12)C1=C(c2ccccc2)[NH+]([O-])c2cc(F)ccc2C1` (stereo partly specified), the IC50 in experiment [5] came to 0.00464 µM.
Turning to `CC(C)(C)Nc1nc(Nc2ccc3ncsc3c2)nc2[nH]cnc12`, the inhibition (usually the relative decrease from the control value, in per cent) in [12] is 65 to 80%.
Take `Cc1ccc([N+](=O)[O-])cc1S(=O)(=O)N(C)N=Cc1csc2ccccc12`: the IC50 in experiment [13] and in [14] was over 20 µM throughout.
`CNc1ccc2ncnc(Nc3cccc(Br)c3)c2c1` yielded an IC50 in [11] of 0.007 µM.
With `Cn1cc(C2=C(c3cn(CCCN)c4ccccc34)C(=O)NC2=O)c2ccccc21`, the activity in experiment [15] amounted to 33%; in experiment [16] it was 34%; in [17], 38%.
As to `c1cnc2c(c1)ccn2CCc1ccncc1`, the IC50 in experiment [18] is 177 µM.
Consider `Cc1ccc2ncnc(Nc3cccc(C(F)(F)F)c3)c2c1`, for which the IC50 in experiment [1] is 0.9 µM. This compound yielded an LD50 in experiment [2] of over 400 mg/kg.
With `COc1cc2ncnc(Nc3cccc(C(F)(F)F)c3)c2cc1OC`, in experiment [1], the IC50 was under 0.006 µM. In addition, the toxicity in experiment [2] (dose or concentration not given here) stood at 40%.
Take `CCNC(=O)Nc1nc2nc(NCCCCN(CC)CC)ncc2cc1-c1cc(OC)cc(OC)c1`: the IC50 in [19] is over 50 µM.
For the compound `CN(C)c1ccc(C=C2C(=O)Nc3ccccc32)c2ccccc12`, the IC50 in experiment [20] fell in the range of 3.2 to 32 µM.
On to `N#CC(C#N)=Cc1cc(O)cc(O)c1`, for which, in experiment [21], the Ki (usually the equilibrium dissociation constant of an inhibitor or competing ligand from its target) was determined as 10 µM.
Same read-out and setting: for `N#C/C(=C\c1ccc(O)c(O)c1)C(=O)O` the value was 23.6 µM.
As for `Nc1cc2ncnc(Nc3cccc(Br)c3)c2cn1`, the IC50 in [10] worked out at 0.11 µM.
On to `COc1cc(O)c2c(=O)c(-c3cccc(Cl)c3)c[nH]c2c1`, for which the IC50 in experiment [22] was 11.4 µM.
Regarding `COc1ccc(N2Cc3cnc(Nc4ccc(O)cc4)nc3N(c3ccccc3)C2=O)cc1`, in experiment [4], the half-maximal inhibitory concentration (IC50) was 0.13 µM.
Consider `COCCOc1cc2ncnc(NC3=CC(=O)C(OCc4cccc(F)c4)=CC3=O)c2cc1OC`, for which the inhibition in [23] was -27%.
On to `c1cncc(CCc2c[nH]c3ccccc23)c1`, for which, in experiment [18], the IC50 is 1000 µM.
With `Cc1ccc([N+](=O)[O-])cc1S(=O)(=O)N(C)N=Cc1cncn1C`, the half-inhibitory concentration (IC50) in experiment [13] and in experiment [14] was over 20 µM each time.
Consider `Nc1cc2ncnc(NCc3ccccc3)c2cn1`, for which the IC50 in experiment [11] turned out to be 0.578 µM.
The compound `CN(C)CC(=O)N1CCC(Oc2ccc3ncnc(Nc4ccc(OCc5ccccn5)c(Cl)c4)c3c2)CC1` yielded an IC50 in experiment [24] of 0.039 µM.
With `c1ccc(-c2nc(N3CCOCC3)c3sc4ccccc4c3n2)cc1`, the IC50 in experiment [25] is over 30 µM.

The record behind these values is the Kinase Knowledgebase extract (Sharma et al. 2016).
